Laboratory results as given in patent US20240360179A1, “STAPLED PEPTIDES AND METHODS THEREOF” (FOG PHARMACEUTICALS, INC., priority 2021, published 2024).
Where two headings read alike, the source gives them in different places.

Key:
[1] = target: T1, full-length B-Catenin (Uniprot ID P35222) (Homo sapiens, UniProt P35222); type: binding
T1 construct: 10 nM full-length B-Catenin (Uniprot ID P35222)
T1 sequence (P35222 1-781): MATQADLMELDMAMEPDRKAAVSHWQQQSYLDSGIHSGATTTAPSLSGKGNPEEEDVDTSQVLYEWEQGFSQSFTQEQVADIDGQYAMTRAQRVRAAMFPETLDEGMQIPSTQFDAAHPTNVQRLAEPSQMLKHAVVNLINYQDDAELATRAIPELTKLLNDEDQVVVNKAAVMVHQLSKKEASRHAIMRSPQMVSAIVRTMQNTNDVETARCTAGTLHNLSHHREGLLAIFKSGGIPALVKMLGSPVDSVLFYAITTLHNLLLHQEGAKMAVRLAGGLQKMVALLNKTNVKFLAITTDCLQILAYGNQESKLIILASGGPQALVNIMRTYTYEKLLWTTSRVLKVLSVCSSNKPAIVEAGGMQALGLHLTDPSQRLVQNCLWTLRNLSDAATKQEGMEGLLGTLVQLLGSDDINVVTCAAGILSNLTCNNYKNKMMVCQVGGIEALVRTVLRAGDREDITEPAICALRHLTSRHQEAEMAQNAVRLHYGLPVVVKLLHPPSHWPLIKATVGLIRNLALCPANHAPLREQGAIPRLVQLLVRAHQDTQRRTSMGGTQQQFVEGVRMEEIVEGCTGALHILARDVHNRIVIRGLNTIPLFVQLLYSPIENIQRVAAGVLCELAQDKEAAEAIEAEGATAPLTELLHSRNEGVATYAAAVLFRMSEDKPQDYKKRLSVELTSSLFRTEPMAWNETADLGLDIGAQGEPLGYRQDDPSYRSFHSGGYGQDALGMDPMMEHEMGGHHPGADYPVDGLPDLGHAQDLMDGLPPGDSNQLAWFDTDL

COLO320DM cells = test: COLO320DM proliferation assay (CellTiter-Glo); type: cell-based, human; conditions: read-out: COLO320DM Proliferation Abs IC50
In short: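 COLO320DM cells, 250 cells/well in RPMI-1640 with 4% FBS, attached 18-22 h, then exposed 96 h at 37 °C, 5% CO2 to 7-point 1/2 dilutions from 20 uM to 313 nM. Viability by CellTiter-Glo luminescence; IC50 derived from the dose curve.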

| Compound | IC50 (COLO320DM cells) | further results |
| --- | --- | --- |
| Ac-PL3-Asp-Npg-B5-Asp-3COOHF-Cha-Ala-Phe-Lys*3-PyrS2-2F3MeF-BztA-GlnR*3-Ala-NH2 [I-102] |  | IC50 ([1]; read-out: beta-Catenin FP IC50): < 0.05 µM |
| Ac-PL3-Asp-Npg-B5-Asp-3COOHF-Aib-Ala-nLeu-Lys*3-PyrS2-Phe-34ClF-GlnR*3-Ala-NH2 [I-480] |  | IC50 ([1]; read-out: beta-Catenin FP IC50): < 0.05 µM |
| Ac-PL3-Asp-Leu-B5-Asp-3COOHF-Ala-Ala-Phe-dLys*3-PyrS2-3Thi-BztA-GlnR*3-NH2 [I-10] |  | IC50 ([1]; read-out: beta-Catenin FP IC50): < 0.05 µM |
| Ac-PL3-Asp-Npg-B5-Asp-3COOHF-Aib-Ala-Phe-Lys*3-PyrS2-3Thi-BztA-GlnR*3-dLeu-Ser-Leu-NH2 [I-468] |  | IC50 ([1]; read-out: beta-Catenin FP IC50): < 0.05 µM |
| Ac-PL3-Asp-Npg-B5-Asp-3COOHF-Aib-Ala-Phe-Lys*3-PyrS2-3Thi-BztA-GlnR*3-Leu-Glu-Ala-NH2 [I-495] |  | IC50 ([1]; read-out: beta-Catenin FP IC50): < 0.05 µM |
| Ac-PL3-Asp-Npg-B5-Asp-3COOHF-Aib-Ala-Phe-Lys*3-PyrS2-3Thi-BztA-GlnR*3-Leu-aThr-Ala-NH2 [I-501] |  | IC50 ([1]; read-out: beta-Catenin FP IC50): < 0.05 µM |
| Ac-PL3-Asp-Npg-B5-Asp-3COOHF-DaMeS-Ala-Phe-Lys*3-PyrS2-3Thi-BztA-GlnR*3-Ala-NH2 [I-437] |  | IC50 ([1]; read-out: beta-Catenin FP IC50): < 0.05 µM |
| Ac-PL3-Asp-Npg-B5-Asp-3COOHF-Aib-Ala-Phe-[oXyl]Cys-PyrS2-2F3MeF-BztA-Cys-Ala-NH2 [I-376] |  | IC50 ([1]; read-out: beta-catenin TCF4 competition FP assay IC50): 0.22 µM |
| Ac-PL3-Asp-Npg-B5-Asp-3COOHF-aMeDF-Ala-Phe-Lys*3-PyrS2-3Thi-BztA-GlnR*3-Ala-NH2 [I-457] |  | IC50 ([1]; read-out: beta-Catenin FP IC50): < 0.05 µM |
| Ac-PL3-Asp-Npg-B5-Asp-3COOHF-CyLeu-Ala-Phe-Lys*3-PyrS2-3Thi-BztA-GlnR*3-Ala-NH2 [I-383] |  | IC50 ([1]; read-out: beta-Catenin FP IC50): < 0.05 µM |
| 4pentenyl-ThioPro-Asp-B5-Ala-Asp-3COOHF-Ala-Ala-Phe-PyrS2-Lys*3-3Thi-BztA-Ala-GlnR*3-NH2 [I-933] |  | IC50 ([1]; competition fluorescence polarization, read-out: beta-Catenin FP IC50): > 1 µM |
| Ac-PL3-Asp-Npg-B5-Asp-3COOHF-Aib-Ala-Phe-Lys*3-PyrS2-3Thi-BztA-GlnR*3-Leu-Ser-Ala-NH2 [I-497] |  | IC50 ([1]; read-out: beta-Catenin FP IC50): < 0.05 µM |
| Ac-PL3-Asp-Npg-B5-Asp-3COOHF-Acp-Ala-Phe-Lys*3-PyrS2-3Thi-BztA-GlnR*3-Ala-NH2 [I-385] |  | IC50 ([1]; read-out: beta-Catenin FP IC50): < 0.05 µM |
| Ac-PL3-Asp-Npg-B5-Asp-3COOHF-Aib-Ala-Phe-Lys*3-PyrS2-3Thi-BztA-GlnR*3-Leu-Thr-Ala-NH2 [I-499] |  | IC50 ([1]; read-out: beta-Catenin FP IC50): < 0.05 µM |
| Ac-PL3-Asp-Ile-B5-Asp-3COOHF-CyLeu-Ala-Phe-Lys*3-PyrS2-3Thi-34ClF-GlnR*3-NH2 [I-1040] | ≤ 10 µM |  |
| Ac-PL3-Asp-Ile-B5-Asp-3COOHF-Aib-Ala-Phe-1MeK*3-PyrS2-Phe-34ClF-GlnR*3-NH2 [I-1369] | ≤ 10 µM |  |
| Ac-PL3-Asp-Npg-B5-Asp-3COOHF-Aib-Ala-Phe-Lys*3-PyrS2-3Thi-BztA-GlnR*3-Ala-Ala-Arg-Ala-Ala-Ala-Arg-NH2 [I-1157] | ≤ 10 µM |  |
| Ac-PL3-Asp-Ile-B5-Asp-3COOHF-Aib-Ala-Phe-Lys*3-PyrS2-2MeF-34ClF-GlnR*3-NH2 [I-1508] | ≤ 10 µM |  |
| Ac-PL3-Asp-Npg-B5-Asp-3COOHF-Aib-Ala-Phe-Lys*3-PyrS2-2FF-34ClF-GlnR*3-NH2 [I-1537] | ≤ 10 µM |  |
| Ac-PL3-Asp-Ile-B5-Asp-3COOHF-Aib-Ala-Phe-Lys*3-PyrS2-Phe-3BrF-GlnR*3-NH2 [I-1604] | ≤ 10 µM |  |
| Ac-PL3-Asp-DipA-B5-Asp-3COOHF-Ala-Ala-Phe-Lys*3-PyrS2-3Thi-34ClF-GlnR*3-NH2 [I-1111] | ≤ 10 µM |  |
| Ac-PL3-Asp-Npg-B5-Asp-3COOHF-Aib-Ala-Phe-Lys*3-PyrS2-3Thi-BztA-GlnR*3-[mPEG4]Lys-NH2 [I-1181] | > 20 µM |  |
| CC(=O)N1CCC[C@]12CC=CCCCC1(CCCC=CCCCOC(=O)N3CC[C@@]4(C3)NC(=O)[C@H](CCCCNC(=O)CC[C@@H](C(=O)N[C@@H](C)C(N)=O)NC(=O)[C@H](Cc3csc5ccccc35)NC(=O)[C@H](Cc3ccccc3C)NC4=O)NC(=O)[C@H](Cc3ccccc3)NC(=O)[C@H](C)NC(=O)C(C)(C)NC(=O)[C@H](Cc3cccc(C(=O)O)c3)NC(=O)[C@H](CC(=O)O)NC1=O)NC(=O)[C@H](CC(C)(C)C)NC(=O)[C@H](CC(=O)O)NC2=O (relative stereo) [I-294, Ac-PL3-Asp-Npg-B5-Asp-3COOHF-Aib-Ala-Phe-Lys*3-PyrS2-2MeF-BztA-GlnR*3-Ala-NH2] | ≤ 10 µM |  |
| Ac-PL3-Asp-Npg-B5-Asp-3COOHF-Aib-Ala-Phe-Lys*3-PyrS2-[Nic]2NH2F-BztA-GlnR*3-Ala-NH2 [I-1754] | > 20 µM |  |

| Compound | IC50 (COLO320DM cells) | further results |
| --- | --- | --- |
| Ac-PL3-Asp-DipA-B5-Asp-3COOHF-Ala-Ala-Phe-Lys*3-PyrS2-3Thi-BztA-GlnR*3-Ala-NH2 [I-982] | ≤ 10 µM |  |
| Ac-PL3-Asp-Npg-B5-Asp-3COOHF-Aib-Ala-Phe-Lys*3-PyrS2-3Thi-BztA-GlnR*3-Ala-Ala-Val-Pro-Ala-Leu-Arg-NH2 [I-817] | ≤ 10 µM |  |
| Ac-PL3-Asp-Ile-B5-Asp-3COOHF-Aib-Ala-Phe-Lys*3-PyrS2-Phe-3ClF-GlnR*3-NH2 [I-1598] | ≤ 10 µM |  |
| Ac-PL3-Asp-DipA-B5-Asp-3COOHF-Ala-Ala-Phe-Lys*3-PyrS2-3Thi-34ClF-GlnR*3-Ala-Ala-[mPEG8]-Lys-NH2 [I-1703] | ≤ 10 µM |  |
| Ac-PL3-Asp-Npg-B5-Asp-3COOHF-Aib-Ala-Phe-Lys*3-PyrS2-3Thi-34ClF-GlnR*3-NH2 [I-867] | ≤ 10 µM |  |
| Ac-PL3-Asp-DipA-B5-Asp-3COOHF-Ala-Ala-Phe-Lys*3-PyrS2-3Thi-34ClF-GlnR*3-Ala-Ala-[Ac-PEG8]-Lys-NH2-NH2 [I-1788] | ≤ 10 µM |  |
| Ac-PL3-Asp-Npg-B5-Asp-3COOHF-Aib-Ala-Phe-Lys*3-PyrS2-3Thi-BztA-GlnR*3-Ala-Ala-Arg-Ala-Ala-Ala-Ala-NH2 [I-1155] | ≤ 10 µM |  |
| Ac-PL3-Asp-Chg-B5-Asp-3COOHF-Aib-Ala-Phe-Lys*3-PyrS2-2ClF-BztA-GlnR*3-NH2 [I-1530] | ≤ 10 µM |  |
| Ac-PL3-Asp-DipA-B5-Asp-3COOHF-CyLeu-Ala-Phe-Lys*3-PyrS2-2F3MeF-BztA-GlnR*3-Leu-NH2 [I-1770] | ≤ 10 µM |  |
| Ac-PL3-Asp-Chg-B5-Asp-3COOHF-Ala-Ala-Phe-Lys*3-PyrS2-2ClF-34ClF-GlnR*3-NH2 [I-1506] | ≤ 10 µM |  |
| Ac-PL3-Asp-DipA-B5-Asp-3COOHF-CyLeu-Ala-Phe-Lys*3-PyrS2-2F3MeF-BztA-GlnR*3-NH2 [I-1766] | > 20 µM |  |
| Ac-PL3-Asp-Chg-B5-Asp-3COOHF-CyLeu-Ala-Phe-Lys*3-PyrS2-3Thi-34ClF-GlnR*3-NH2 [I-1044] | ≤ 10 µM |  |
| CCCC[C@@H]1NC(=O)[C@H](CC(=O)O)NC(=O)[C@]2(CC=CCCCC3(CCCC=CCCCOC(=O)N4CC[C@@]5(C4)NC(=O)[C@H](CCCCNC(=O)CC[C@@H](C(=O)N[C@@H](C)C(N)=O)NC(=O)[C@H](Cc4csc6ccccc46)NC(=O)[C@H](Cc4ccsc4)NC5=O)NC(=O)[C@H](Cc4ccccc4)NC(=O)[C@H](C)NC(=O)C(C)(C)NC(=O)[C@H](Cc4cccc(C(=O)O)c4)NC(=O)[C@H](CC(=O)O)NC3=O)NC1=O)CCCN2C(C)=O (relative stereo) [I-245, Ac-PL3-Asp-nLeu-B5-Asp-3COOHF-Aib-Ala-Phe-Lys*3-PyrS2-3Thi-BztA-GlnR*3-Ala-NH2] | ≤ 10 µM |  |
| Ac-PL3-Asp-Ile-B5-Asp-3COOHF-Aib-Ala-Phe-Lys*3-PyrS2-Phe-34ClF-hGlnR*3-NH2 [I-1371] | > 20 µM |  |
| Ac-PL3-Asp-Ile-B5-Asp-3COOHF-Ala-Ala-Phe-sCH2S*3-PyrS2-Phe-34ClF-TriAzOrn*3-NH2 [I-1869] | ≤ 10 µM |  |
| Me2NAc-PL3-Asp-Npg-B5-Asp-3COOHF-Aib-Ala-Phe-Lys*3-PyrS2-3Thi-BztA-GlnR*3-Ala-NH2 [I-1078] | > 20 µM |  |
| Ac-PL3-Asp-Npg-B5-Asp-3COOHF-Aib-Ala-Phe-Lys*3-PyrS2-3Thi-BztA-GlnR*3-Ala-Ala-Lys-Ala-Ala-Ala-Lys-NH2 [I-1158] | ≤ 10 µM |  |
| Ac-PL3-Asp-Ile-B5-Asp-3COOHF-Aib-Ala-Phe-sAla*3-PyrS2-Phe-34ClF-TriAzLys*3-NH2 [I-1857] | 10 to 20 µM |  |
| Ac-PL3-Asp-Npg-B5-Asp-3COOHF-Aib-Ala-Phe-Lys*3-PyrS2-hCypA-34ClF-GlnR*3-Val-Glu-Ala-NH2 [I-1349] | ≤ 10 µM |  |
| Ac-PL3-Asp-Npg-B5-Asp-3COOHF-Aib-Ala-Phe-Lys*3-PyrS2-3Thi-34ClF-GlnR*3-Pro-NH2 [I-868] | ≤ 10 µM |  |
| Ac-PL3-Asp-Npg-B5-Asp-3COOHF-Aib-Ala-Phe-Lys*3-PyrS2-hCbA-BztA-GlnR*3-Val-Glu-Ala-NH2 [I-1345] | ≤ 10 µM |  |
| Ac-PL3-Asp-Ile-B5-Asp-3COOHF-Aib-Ala-Phe-sCH2S*3-PyrS2-Phe-34ClF-TriAzOrn*3-NH2 [I-1862] | ≤ 10 µM |  |
| Ac-PL3-Asp-DipA-B5-Asp-3COOHF-Ala-Ala-Phe-Lys*3-PyrS2-3Thi-34ClF-GlnR*3-Ala-Ala-[Oct-PEG8]-Lys-NH2-NH2 [I-1790] | ≤ 10 µM |  |
